Assay results: patent publication US3959519A, “Fortification of food materials with a methionine source” (priority 1975, dated 1976)
Where a SMILES comes first, the peptide text is derived from it.

Key:
[1] = Odor development on storage in sealed containers; type: physicochemical; conditions: recrystallized sample, sealed container, twenty-nine days at 45°C.
Method: Samples of virtually odorless, recrystallized D,L-methionine, glycyl-D,L-methionine, and D,L-alanyl-D,L-methionine were stored in sealed containers for twenty-nine days at 45°C.

[2] = Chick feeding test, body weight and feed efficiency on fortified corn-soy rations; type: in vivo, cockerels (Barred Rock males x Rhode Island females); conditions: for difference between responses from methionine and glycylmethionine supplemented rations: 0.15% D,L-methionine vs 0.2% glycyl-D,L-methionine; for feed efficiencies / growth: corn-soy poultry ration with 0.15% D,L-methionine or 0.2% glycyl-D,L-methionine
Text: For this test, cockerels are produced from a cross of Barred Rock males and Rhode Island females. All the 150 cockerels are selected on the basis that their weight differs no more than 2 grams. The birds are maintained on an all vegetable protein corn-soy basal diet for a 2-week preliminary period. At the end of this period, a median group of 90 birds is selected on the basis of weight, and they are then evenly distributed into three experimental groups, which in turn are placed on the experimental rations (Table 2). The level of glycyl-D,L-methionine in Diet No. 3 is equivalent to the level of D,L-methionine in Diet No. 2, on the basis of L-methioninecontent. The birds are weighed weekly and their feed consumption also determined weekly, to permit weekly feed efficiency evaluations. […] | -- -- 92 g.

[3] = system: Leuconostoc mesenteroides P-60; experiment: L-methionine bioavailability from dipeptides by turbidimetric growth response of a methionine-requiring bacterial mutant; type: cell-based; conditions: for utilization as a source of L-methionine by L. mesenteroides P-60: 17 hours of incubation at 37°C.; for L-Methionine Response / L-Methionine, % of Theoretical: 17 hours, 37°C.
Text: The utilization of methionine-containing peptide can be shown, for example, in animal feeding tests. However, the formation of free methionine can also be shown directly in tests with a microorganism requiring methionine for its growth and reproduction. The following Example describes a quantitative test involving a known bacterial mutant.
Leuconostoc mesenteroides P-60 was the bacterial mutant used to assess the biological availability of L-methionine in glycyl-D,L-methionine, glycyl-L-methionine and L-methionylglycine. This mutant is unable to synthesize methionine and therefore requires an external source of this amino acid.
Under aseptic conditions, a substrate devoid of L-methionine was supplemented with graded amounts of glycyl-D,L-methionine, glycyl-L-methionine, and L-methionylglycine and then inoculated with a drop of a washed L. mesenteroides P-60 culture. After 17 hours of incubation at 37°C., the growth of L. mesenteroides P-60 in each of the culture tubes was measured turbidimetrically, at a wavelength of […]. Based on the growth response of this mutant to a similar treatment with a standard L-methionine solution of known concentration, the L-methionine response, if any, to the candidate peptides was evaluated.

[4] = level tested 12 μg./tube, calculated L-methionine equivalence 4.0 μg. (glycyl-D,L-methionine) or 8.0 μg. (L-dipeptides)
[5] = level tested 24 μg./tube, calculated L-methionine equivalence 8.0 μg.
[6] = level tested 6 μg./tube, calculated L-methionine equivalence 4.0 μg.

SMILES | odor after storage [1] | difference between responses from methionine and glycylmethionine supplemented rations [2] | feed efficiencies [2] | growth [2] | utilization as a source of L-methionine by L. mesenteroides P-60 [3] | L-Methionine Response [3, 4] | L-Methionine, % of Theoretical [3, 4] | L-Methionine Response [3, 5] | L-Methionine, % of Theoretical [3, 5] | L-Methionine Response [3, 6] | L-Methionine, % of Theoretical [3, 6]
CSCCC(NC(=O)C(C)N)C(=O)O (mixture of isomers) [D,L-alanyl-D,L-methionine] | developed a typical sulfurous odor | – | – | – | – | – | – | – | – | – | –
CSCCC(N)C(=O)O (racemic) [D,L-Methionine, D,L-methionine, reference compound] | developed a typical sulfurous odor | No significant difference | improved feed efficiencies | significant growth increases | – | – | – | – | – | – | –
CSCCC(NC(=O)CN)C(=O)O (racemic) [Glycyl-D,L-Methionine, glycyl-D,L-methionine] | still virtually odor-free | No significant difference | improved feed efficiencies | significant growth increases | can utilize | 3.5 µg | 88% | 7.5 µg | 94% | – | –
CSCC[C@H](NC(=O)CN)C(=O)O [Glycyl-L-Methionine, glycyl-L-methionine] | – | – | – | – | can utilize | 7.8 µg | 97% | – | – | 4.5 µg | 112%
CSCC[C@H](N)C(=O)NCC(=O)O [L-Methionylglycine, L-methionylglycine] (H-Met-Gly-OH) | – | – | – | – | can utilize | 7.5 µg | 94% | – | – | 4.0 µg | 100%
